How the values were obtained:
Assay in all cases: AlphaScreen competition
Type in all cases: binding
[1] = biological target: BPTF bromodomain (BPTF BD) (Homo sapiens, UniProt Q12830)
[2] = biological target: CECR2 bromodomain (CECR2 BD) (Homo sapiens, UniProt Q9BXF3)
[3] = biological target: T1, BRD9 bromodomain (BRD9 BD) (Homo sapiens, UniProt Q9H8M2)
T1 sequence (Q9H8M2 134-239 limits assumed): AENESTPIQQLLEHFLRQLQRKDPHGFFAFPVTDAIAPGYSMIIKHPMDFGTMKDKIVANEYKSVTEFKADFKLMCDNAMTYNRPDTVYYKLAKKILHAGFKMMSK

Row | IC50 [1] | IC50 [2] | IC50 [3] | SMILES
1 | 146 ± 12 nM | 24 nM | 844 nM | CS(=O)(=O)c1nc(NCCCn2cccn2)cc(-c2ccc(OCCCN3CCN(CCCCCCOc4cccc5c4C(=O)N(C4CCC(=O)NC4=O)C5=O)CC3)cc2)n1 (stereo not shown) [compound 8, 4-((6-(4-(3-(4-(6-((3-(1H-Pyrazol-1-yl)propyl)amino)-2-(methylsulfonyl)pyrimidin-4-yl)phenoxy)propyl)piperazin-1-yl)hexyl)oxy)-2-(2,6-dioxopiperidin-3-yl)isoindoline-1,3-dione]
2 | 267 ± 8 nM | 33 nM | 996 nM | CS(=O)(=O)c1nc(NCCCn2cccn2)cc(-c2ccc(OCCCN3CCN(CCOCCOCCOc4cccc5c4C(=O)N(C4CCC(=O)NC4=O)C5=O)CC3)cc2)n1 (stereo not shown) [compound 9, 4-(2-(2-(2-(4-(3-(4-(6-((3-(1H-Pyrazol-1-yl)propyl)amino)-2-(methylsulfonyl)pyrimidin-4-yl)phenoxy)propyl)piperazin-1-yl)ethoxy)ethoxy)ethoxy)-2-(2,6-dioxopiperidin-3-yl)-isoindoline-1,3-dione]
3 | 360 nM |  |  | CN(CCCOc1ccc(-c2cc(NCCCn3cccn3)nc(S(C)(=O)=O)n2)cc1)CCOCCOCCOc1cccc2c1C(=O)N(C1CCC(=O)NC1=O)C2=O (stereo not shown) [compound 10, 4-(2-(2-(2-((3-(4-(6-((3-(1H-Pyrazol-1-yl)propyl)amino)-2-(methylsulfonyl)pyrimidin-4-yl)phenoxy)propyl)(methyl)-amino)ethoxy)ethoxy)ethoxy)-2-(2,6-dioxopiperidin-3-yl)-isoindoline-1,3-dione]
